The target in assay [1] is T1, BSA (bovine serum albumin) (Bos taurus, UniProt P02769).
T1 construct: gene ALB; commercial native serum albumin (Sigma-Aldrich), mature secreted protein, catalogue number not given
Description: tryptophan fluorescence quenching (excitation […] nm), Scatchard plot. Conditions: read-out: K(BSA) (converted). In kind it is binding.

Assay [2] deals with T2, HSA (human serum albumin) (Homo sapiens, UniProt P02768).
T2 construct: gene ALB; commercial serum albumin (Sigma-Aldrich), mature secreted protein, catalogue number not given
T2 sequence (P02768 25-609): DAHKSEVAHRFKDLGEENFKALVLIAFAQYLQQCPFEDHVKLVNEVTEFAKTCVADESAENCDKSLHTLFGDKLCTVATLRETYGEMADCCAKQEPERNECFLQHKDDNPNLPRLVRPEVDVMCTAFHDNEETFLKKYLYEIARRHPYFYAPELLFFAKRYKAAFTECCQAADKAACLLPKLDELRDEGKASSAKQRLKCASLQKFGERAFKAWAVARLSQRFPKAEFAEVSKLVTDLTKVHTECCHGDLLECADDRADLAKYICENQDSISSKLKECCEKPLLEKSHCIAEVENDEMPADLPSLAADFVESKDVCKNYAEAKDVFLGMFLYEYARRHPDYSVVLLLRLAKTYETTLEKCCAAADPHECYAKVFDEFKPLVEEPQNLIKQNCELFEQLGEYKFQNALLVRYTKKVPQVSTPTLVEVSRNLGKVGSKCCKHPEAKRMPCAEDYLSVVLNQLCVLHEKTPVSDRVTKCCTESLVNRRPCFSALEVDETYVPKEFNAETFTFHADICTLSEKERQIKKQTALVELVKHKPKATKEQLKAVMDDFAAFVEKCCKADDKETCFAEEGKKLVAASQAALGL
The assay is described as above. In kind it is binding. Conditions: read-out: K(HSA) (converted).

T1 sequence (P02769 25-607): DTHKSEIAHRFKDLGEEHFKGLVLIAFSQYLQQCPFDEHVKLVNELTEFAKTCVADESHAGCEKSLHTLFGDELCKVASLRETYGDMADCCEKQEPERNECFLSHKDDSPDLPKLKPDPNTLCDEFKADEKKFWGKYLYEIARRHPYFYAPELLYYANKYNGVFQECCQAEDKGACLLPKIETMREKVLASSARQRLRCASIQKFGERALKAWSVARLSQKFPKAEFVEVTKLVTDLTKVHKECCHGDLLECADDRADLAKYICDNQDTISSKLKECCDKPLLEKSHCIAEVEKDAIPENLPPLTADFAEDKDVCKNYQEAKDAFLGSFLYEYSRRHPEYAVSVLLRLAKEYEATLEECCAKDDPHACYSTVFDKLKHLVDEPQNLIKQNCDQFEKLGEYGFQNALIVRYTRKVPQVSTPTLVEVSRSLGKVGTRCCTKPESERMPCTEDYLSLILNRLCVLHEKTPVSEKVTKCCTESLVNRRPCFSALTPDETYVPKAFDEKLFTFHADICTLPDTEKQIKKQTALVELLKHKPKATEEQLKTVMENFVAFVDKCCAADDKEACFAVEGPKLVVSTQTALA

Take `O=C(O)c1ccccc1Nc1ccc(Br)cc1` [4′-Br-fenH]: the Kd in assay [1] was 3.68 µM; in assay [2], 3.7 µM.

(Values after paper PMC12524402, “Cobalt(II) Complexes of 4′-Bromo-Fenamic Acid: Antioxidant Properties, Antibacterial Activity, and Interaction with DNA and Albumins” (International Journal of Molecular Sciences, 2025).)
